Each molecule was assayed against ROCK2 (Homo sapiens (Human), UniProt O75116) (assay: ROCK assay (Caliper LABCHIP peptide phosphorylation, 5 μM ATP)). Conditions: 1.5 μM peptide substrate.
Format: biochemical

Chain of ROCK2 (O75116 whole entry, species assumed): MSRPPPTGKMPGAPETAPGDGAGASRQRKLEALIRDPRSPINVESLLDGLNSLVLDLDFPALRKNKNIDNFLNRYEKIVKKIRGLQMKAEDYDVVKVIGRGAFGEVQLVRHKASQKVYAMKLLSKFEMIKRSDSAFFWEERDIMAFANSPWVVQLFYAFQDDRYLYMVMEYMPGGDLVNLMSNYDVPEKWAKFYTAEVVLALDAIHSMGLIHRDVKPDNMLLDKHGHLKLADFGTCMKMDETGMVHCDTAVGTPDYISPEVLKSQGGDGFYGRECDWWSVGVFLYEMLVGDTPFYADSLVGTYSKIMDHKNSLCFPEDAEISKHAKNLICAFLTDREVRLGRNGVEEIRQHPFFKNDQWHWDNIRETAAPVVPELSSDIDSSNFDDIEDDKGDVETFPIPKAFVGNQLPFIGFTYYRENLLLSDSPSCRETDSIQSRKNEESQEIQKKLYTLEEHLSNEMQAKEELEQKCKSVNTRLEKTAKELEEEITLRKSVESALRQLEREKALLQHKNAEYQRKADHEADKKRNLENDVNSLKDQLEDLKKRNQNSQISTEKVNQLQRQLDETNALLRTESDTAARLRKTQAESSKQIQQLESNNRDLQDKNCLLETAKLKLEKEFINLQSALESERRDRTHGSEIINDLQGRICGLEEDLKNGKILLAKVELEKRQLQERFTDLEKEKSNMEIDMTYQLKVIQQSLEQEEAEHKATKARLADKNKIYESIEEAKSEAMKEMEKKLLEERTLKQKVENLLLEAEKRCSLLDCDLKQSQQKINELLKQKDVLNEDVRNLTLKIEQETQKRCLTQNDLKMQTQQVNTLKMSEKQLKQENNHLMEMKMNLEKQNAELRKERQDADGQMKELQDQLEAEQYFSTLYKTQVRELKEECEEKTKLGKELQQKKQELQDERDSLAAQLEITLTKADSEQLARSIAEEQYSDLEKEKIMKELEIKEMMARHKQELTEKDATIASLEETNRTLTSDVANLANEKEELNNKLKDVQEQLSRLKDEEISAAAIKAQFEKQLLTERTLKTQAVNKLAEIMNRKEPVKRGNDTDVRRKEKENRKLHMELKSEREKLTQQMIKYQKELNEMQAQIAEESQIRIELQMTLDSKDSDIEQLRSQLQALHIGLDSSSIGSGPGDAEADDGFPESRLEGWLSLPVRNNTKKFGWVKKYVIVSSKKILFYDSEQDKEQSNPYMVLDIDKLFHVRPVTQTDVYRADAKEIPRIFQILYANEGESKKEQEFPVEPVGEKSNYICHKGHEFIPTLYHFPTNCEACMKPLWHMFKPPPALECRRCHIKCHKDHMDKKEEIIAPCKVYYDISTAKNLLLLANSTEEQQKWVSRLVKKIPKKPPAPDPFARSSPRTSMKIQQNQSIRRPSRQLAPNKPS

IC50 [nM] | Structure (SMILES)
82.2 | O=C(CCOc1ccccc1)Nc1ccc2c(c1)OCc1cnccc1-2 [Example I-2, N-(5H-chromeno[3,4-c]pyridin-8-yl)-3-phenoxypropanamide]
284 | N[C@@H](CCc1ccccc1)C(=O)Nc1ccc2c(c1)OCc1cnccc1-2 [Example I-3, (S)-2-amino-N-(5H-chromeno[3,4-c]pyridin-8-yl)-4-phenylbutanamide]
128 | N[C@H](CCc1ccccc1)C(=O)Nc1ccc2c(c1)OCc1cnccc1-2 [Example I-4, (R)-2-amino-N-(5H-chromeno[3,4-c]pyridin-8-yl)-4-phenylbutanamide]
6.27 | O=C(Cc1ccc(F)cc1Cl)Nc1ccc2c(c1)OCc1cnccc1-2 [Example I-10, 2-(2-chloro-4-fluorophenyl)-N-(5H-chromeno[3,4-c]pyridin-8-yl)acetamide]
74.5 | Cc1cccc(CC(=O)Nc2ccc3c(c2)OCc2cnccc2-3)c1 [Example I-12, N-(5H-chromeno[3,4-c]pyridin-8-yl)-2-m-tolylacetamide]
16.7 | Cc1ccccc1CC(=O)Nc1ccc2c(c1)OCc1cnccc1-2 [Example I-15, N-(5H-chromeno[3,4-c]pyridin-8-yl)-2-o-tolylacetamide]
1760 | CS(=O)(=O)c1ccc(CC(=O)Nc2ccc3c(c2)OCc2cnccc2-3)cc1 [Example I-20, N-(5H-chromeno[3,4-c]pyridin-8-yl)-2-(4-(methylsulfonyl)phenyl)acetamide]
159 | O=C(Cc1cccc(C(F)(F)F)c1)Nc1ccc2c(c1)OCc1cnccc1-2 [Example I-22, N-(5H-chromeno[3,4-c]pyridin-8-yl)-2-(3-(trifluoromethyl)phenyl)acetamide]
368 | O=C(Cc1cc(F)cc(C(F)(F)F)c1)Nc1ccc2c(c1)OCc1cnccc1-2 [Example I-23, N-(5H-chromeno[3,4-c]pyridin-8-yl)-2-(3-fluoro-5-(trifluoromethyl)phenyl)acetamide]
60.8 | N#Cc1ccc(-c2cnn(Cc3cccc(C(=O)Nc4ccc5c(c4)OCc4cnccc4-5)c3)c2)cc1 [Example I-27, N-(5H-chromeno[3,4-c]pyridin-8-yl)-3-((4-(4-cyanophenyl)-1H-pyrazol-1-yl)methyl)benzamide]
3440 | O=C(Nc1ccc2c(c1)OCc1cnccc1-2)c1ccc(F)cc1 [Example I-28, N-(5H-chromeno[3,4-c]pyridin-8-yl)-4-fluorobenzamide]
2940 | O=C(Nc1ccc2c(c1)OCc1cnccc1-2)c1cnccn1 [Example I-30, N-(5H-chromeno[3,4-c]pyridin-8-yl) pyrazine-2-carboxamide]
682 | O=C(CCCc1ccccc1)Nc1ccc2c(c1)OCc1cnccc1-2 [Example I-32, N-(5H-chromeno[3,4-c]pyridin-8-yl)-4-phenylbutanamide]
204 | CC(C)(C(=O)Nc1ccc2c(c1)OCc1cnccc1-2)c1ccccc1 [Example I-36, N-(5H-chromeno [3,4-c]pyridin-8-yl)-2-methyl-2-phenylpropanamide]
847 | COC(=O)c1cccc(C(=O)Nc2ccc3c(c2)OCc2cnccc2-3)c1 [Example I-38, methyl 3-(5H-chromeno[3,4-c]pyridin-8-ylcarbamoyl)benzoate]
500 | NS(=O)(=O)c1ccc(C(=O)Nc2ccc3c(c2)OCc2cnccc2-3)cc1 [Example I-40, N-(5H-chromeno[3,4-c]pyridin-8-yl)-4-sulfamoylbenzamide]
2760 | O=C(Nc1ccc2c(c1)OCc1cnccc1-2)c1csnn1 [Example I-41, N-(5H-chromeno[3,4-c]pyridin-8-yl)-1,2,3-thiadiazole-4-carboxamide]
1450 | O=C(Nc1ccc2c(c1)OCc1cnccc1-2)c1cscn1 [Example I-44, N-(5H-chromeno[3,4-c]pyridin-8-yl) thiazole-4-carboxamide]
1980 | O=C(Nc1ccc2c(c1)OCc1cnccc1-2)c1cncnc1 [Example I-45, N-(5H-chromeno[3,4-c]pyridin-8-yl) pyrimidine-5-carboxamide]
51.2 | O=C(Nc1ccc2c(c1)OCc1cnccc1-2)C(O)c1ccccc1 (stereo not shown) [Example I-46, N-(5H-chromeno[3,4-c]pyridin-8-yl)-2-hydroxy-2-phenylacetamide]
4810 | O=C(Nc1ccc2c(c1)OCc1cnccc1-2)c1ccccc1 [Example I-50, N-(5H-chromeno[3,4-c]pyridin-8-yl)benzamide]
1150 | O=C(Nc1ccc2c(c1)OCc1cnccc1-2)c1ccccc1Cl [Example I-51, 2-chloro-N-(5H-chromeno[3,4-c]pyridin-8-yl)benzamide]
3560 | O=C(Nc1ccc2c(c1)OCc1cnccc1-2)c1cccc(F)c1 [Example I-52, N-(5H-chromeno[3,4-c]pyridin-8-yl)-3-fluorobenzamide]
4500 | O=C(Nc1ccc2c(c1)OCc1cnccc1-2)c1cccc(Cl)c1 [Example I-53, 3-chloro-N-(5H-chromeno[3,4-c]pyridin-8-yl)benzamide]
2560 | N#Cc1ccc(C(=O)Nc2ccc3c(c2)OCc2cnccc2-3)cc1 [Example I-54, N-(5H-chromeno[3,4-c]pyridin-8-yl)-4-cyanobenzamide]
3250 | COc1ccc(C(=O)Nc2ccc3c(c2)OCc2cnccc2-3)cc1 [Example I-55, N-(5H-chromeno[3,4-c]pyridin-8-yl)-4-methoxybenzamide]

Continued, molecule first:

Structure (SMILES) | IC50 [nM]
CC(C(=O)Nc1ccc2c(c1)OCc1cnccc1-2)c1ccccc1Cl (stereo not shown) [Example I-5, 2-(2-chlorophenyl)-N-(5H-chromeno [3,4-c]pyridin-8-yl) propanamide] | 33.5
O=C(Cc1cccc(Cl)c1)Nc1ccc2c(c1)OCc1cnccc1-2 [Example I-11, 2-(3-chlorophenyl)-N-(5H-chromeno [3,4-c]pyridin-8-yl) acetamide] | 24.8
O=C(Cc1ccc(Cl)cc1)Nc1ccc2c(c1)OCc1cnccc1-2 [Example I-13, 2-(4-chlorophenyl)-N-(5H-chromeno [3,4-c]pyridin-8-yl) acetamide] | 134
O=C(Cc1ccc(Cl)cc1Cl)Nc1ccc2c(c1)OCc1cnccc1-2 [Example I-14, N-(5H-chromeno [3,4-c]pyridin-8-yl)-2-(2,4-dichlorophenyl) acetamide] | 54.4
Cc1cc(C)cc(CC(=O)Nc2ccc3c(c2)OCc2cnccc2-3)c1 [Example I-16, N-(5H-chromeno[3,4-c]pyridin-8-yl)-2-(3,5-dimethylphenyl) acetamide] | 110
O=C(Cc1cc(F)cc(F)c1)Nc1ccc2c(c1)OCc1cnccc1-2 [Example I-17, N-(5H-chromeno[3,4-c]pyridin-8-yl)-2-(3,5-difluorophenyl) acetamide] | 37.8
COc1cc(CC(=O)Nc2ccc3c(c2)OCc2cnccc2-3)cc(OC)c1 [Example I-18, N-(5H-chromeno[3,4-c]pyridin-8-yl)-2-(3,5-dimethoxyphenyl) acetamide] | 393
COc1ccc(CC(=O)Nc2ccc3c(c2)OCc2cnccc2-3)cc1OC [Example I-19, N-(5H-chromeno[3,4-c]pyridin-8-yl)-2-(3,4-dimethoxyphenyl) acetamide] | 2500
O=C(Cc1c(Cl)cccc1Cl)Nc1ccc2c(c1)OCc1cnccc1-2 [Example I-21, N-(5H-chromeno[3,4-c]pyridin-8-yl)-2-(2,6-dichlorophenyl) acetamide] | 161
Cc1cc(F)ccc1CC(=O)Nc1ccc2c(c1)OCc1cnccc1-2 [Example I-24, N-(5H-chromeno[3,4-c]pyridin-8-yl)-2-(4-fluoro-2-methylphenyl) acetamide] | 11.1
CSc1ccc(CC(=O)Nc2ccc3c(c2)OCc2cnccc2-3)cc1 [Example I-25, N-(5H-chromeno[3,4-c]pyridin-8-yl)-2-(4-(methylthio)phenyl) acetamide] | 295
O=C(Cc1ccc(F)cc1)Nc1ccc2c(c1)OCc1cnccc1-2 [Example I-26, N-(5H-chromeno[3,4-c]pyridin-8-yl)-2-(4-fluorophenyl) acetamide] | 38.7
CS(=O)(=O)c1ccc(C(=O)Nc2ccc3c(c2)OCc2cnccc2-3)cc1 [Example I-29, N-(5H-chromeno[3,4-c]pyridin-8-yl)-4-(methylsulfonyl) benzamide] | 2050
COc1ccc(CC(=O)Nc2ccc3c(c2)OCc2cnccc2-3)cc1 [Example I-31, N-(5H-chromeno[3,4-c]pyridin-8-yl)-2-(4-methoxyphenyl) acetamide] | 497
O=C(Cc1ccccn1)Nc1ccc2c(c1)OCc1cnccc1-2 [Example I-33, N-(5H-chromeno[3,4-c]pyridin-8-yl)-2-(pyridin-2-yl) acetamide] | 367
O=C(Cc1ccncc1)Nc1ccc2c(c1)OCc1cnccc1-2 [Example I-34, N-(5H-chromeno[3,4-c]pyridin-8-yl)-2-(pyridin-4-yl) acetamide] | 207
CC(=O)Nc1cccc(C(=O)Nc2ccc3c(c2)OCc2cnccc2-3)c1 [Example I-35, 3-acetamido-N-(5H-chromeno[3,4-c]pyridin-8-yl) benzamide] | 434
O=C(CCc1ccc(Cl)cc1)Nc1ccc2c(c1)OCc1cnccc1-2 [Example I-37, 3-(4-chlorophenyl)-N-(5H-chromeno [3,4-c]pyridin-8-yl) propanamide] | 323
O=C(Nc1ccc2c(c1)OCc1cnccc1-2)c1csc(-c2cccnc2)n1 [Example I-39, N-(5H-chromeno[3,4-c]pyridin-8-yl)-2-(pyridin-3-yl) thiazole-4-carboxamide] | 644
O=C(Cc1cccnc1)Nc1ccc2c(c1)OCc1cnccc1-2 [Example I-42, N-(5H-chromeno[3,4-c]pyridin-8-yl)-2-(pyridin-3-yl) acetamide] | 287
CS(=O)(=O)c1cccc(C(=O)Nc2ccc3c(c2)OCc2cnccc2-3)c1 [Example I-43, N-(5H-chromeno[3,4-c]pyridin-8-yl)-3-(methylsulfonyl) benzamide] | 2190
O=C(CCn1ccnc1)Nc1ccc2c(c1)OCc1cnccc1-2 [Example I-48, N-(5H-chromeno[3,4-c]pyridin-8-yl)-3-(1H-imidazol-1-yl) propanamide] | 992
O=C(Cc1cnccn1)Nc1ccc2c(c1)OCc1cnccc1-2 [Example I-49, N-(5H-chromeno[3,4-c]pyridin-8-yl)-2-(pyrazin-2-yl) acetamide] | 1250

Source: US9663529B2, “Tricyclic pyrido-carboxamide derivatives as rock inhibitors” (BRISTOL-MYERS SQUIBB COMPANY, priority 2013, dated 2017)
